Results reported in patent US20060009425A1, “Oral formulations of paricalcitol” (priority 2004, published 2006).

Tested on: iPTH
Assay: Combined Phase 3 studies, iPTH reduction (Examples 11, 12)
Type: in vivo, human
Details: for iPTH, Mean Change from Baseline (SE) / iPTH, Mean Percent Change from Baseline (SE): last on-treatment
Procedure: In this example, three double-blind, placebo-controlled, multicenter studies were conducted to evaluate the safety and efficacy of paricalcitol capsule in CKD stage 3-4 subjects. Major inclusion included eGFR (MDRD formula) 15-60 mL/min/1.73 m^2, iPTH ≧150 pg/mL. A total of 220 subjects across the 3 studies were randomized and received paricalcitol capsule or placebo three times weekly (TIW, N=145) or daily (QD, N=75) for 24 weeks. […] The initial dose was 2 mcg (TIW) or 1 mcg (QD) for baseline iPTH ≦500 pg/mL and 4 mcg (TIW) or 2 mcg (QD) for baseline iPTH >500 pg/mL. Doses were titrated based on serum Ca, P and iPTH results that were measured every 2 weeks, dose increases occurred every 4 weeks.
In this example, paricalcitol capsules were evaluated in 3 double-blind, placebo-controlled multicenter studies in CKD stage 3-4 subjects with 2° HPT; 2 of these studies were conducted with TIW dosing and 1 was done with QD dosing. Subjects with eGFR (MDRD formula) 15-60 ml/min/1.73 m^2, iPTH ≧150 pg/mL, serum Ca 8.0-10.0 mg/dL and PO4≦5.2 mg/dL were randomized 1:1 and treated with paricalcitol capsule or placebo for 24 weeks. A total of 145 subjects used TIW regimen (paricalcitol: 72; placebo: 73) and 75 subjects (paricalcitol: 35; placebo: 40) used QD regimen. After the initial doses, doses were titrated based on serum Ca, P and iPTH results that were measured every 2 weeks; dose increases occurred once every 4 weeks and decreases every 2 weeks. Dosing administrations are shown below in Table 18.

C[C@H](/C=C/[C@H](C)C(C)(C)O)[C@H]1CC[C@H]2/C(=C/C=C3C[C@@H](O)C[C@H](O)C3)CCC[C@]12C [Paricalcitol, 19-nor-1α,3β,25-trihydroxy-9,10-secoergosta-5(Z); 7(E),22(E)-triene]
30% mean iPTH reduction by (3 Phase 3 studies combined): ≤ 9 Week
efficacy in PTH suppression (24-week pivotal Phase 3 studies, CKD Stage 3 and 4 with 2° HPT): > 90%
subjects with 2 consecutive 30% decreases in iPTH (92/101, 3 Phase 3 studies combined): 91%
2 consecutive 30% iPTH reduction from baseline, subjects n (%) (N = 101, 3 Phase 3 studies combined): 92 (91%)
iPTH, Mean Last On-Treatment Value (QD Regimen, N = 35): 128 pg/mL
iPTH, Mean Change from Baseline (SE) (QD Regimen): −131 (16.7) pg/mL
iPTH, Mean Percent Change from Baseline (SE) (QD Regimen): −50% (5.0)
2 consecutive 30% iPTH reduction from baseline (QD regimen): 91%
30% mean iPTH reduction by (QD regimen): ≤ 7 Week
2 consecutive 30% iPTH reduction from baseline (QD regimen, listed as paricalcitol): 91%
iPTH, Mean Last On-Treatment Value (TIW Regimen, N = 69): 179 pg/mL
iPTH, Mean Change from Baseline (SE) (TIW Regimen): −90 (10.7) pg/mL
iPTH, Mean Percent Change from Baseline (SE) (TIW Regimen): −33% (3.6)
2 consecutive 30% iPTH reduction from baseline (TIW regimen): 91%
30% mean iPTH reduction by (TIW regimen): ≤ 9 Week
2 consecutive 30% iPTH reduction from baseline (TIW regimen, listed as paricalcitol): 91%
